Assay results taken from article PMC12864978, “Covalent modification of a glutamic acid inspired by HaloTag technology” (Nature Communications, 2026).

What was measured:
Assay in all cases: In-lysate thermal proteome profiling (TPP)
[1] = biological target: T1, Jurkat cell lysate proteome (Homo sapiens, UniProt P22087)
T1 sequence (P22087 1-321): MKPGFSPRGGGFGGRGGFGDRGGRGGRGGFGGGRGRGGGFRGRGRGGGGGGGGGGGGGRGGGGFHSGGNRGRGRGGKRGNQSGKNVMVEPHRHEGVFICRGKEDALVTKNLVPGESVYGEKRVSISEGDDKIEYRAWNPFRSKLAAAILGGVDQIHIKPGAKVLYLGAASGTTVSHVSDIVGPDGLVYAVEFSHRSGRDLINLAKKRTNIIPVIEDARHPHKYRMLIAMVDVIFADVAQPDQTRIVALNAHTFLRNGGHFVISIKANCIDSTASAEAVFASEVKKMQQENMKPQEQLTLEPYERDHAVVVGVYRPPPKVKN
Procedure: (§1) Jurkat cells were grown to a density of 1.0–2.5 × 10⁶ cells/ml. A 100 ml aliquot of the suspension was divided equally into two Falcon tubes and chilled on ice for 2 min. Cells were pelleted by centrifugation at 350×g for 3 min at room temperature. After discarding the supernatant, the combined pellet was resuspended in 25 ml of ice-cold PBS buffer. The washing step—centrifugation at 350×g for 2 min at room temperature, followed by supernatant removal—was further repeated twice. Following the final wash, the cell pellet was resuspended in 1.5 ml of PBS containing 0.4% (v/v) NP40 alternative and flash-frozen in liquid nitrogen. […] The resulting lysate was separated by ultracentrifugation at 100,000×g for 20 min at 4 °C (Beckman Coulter Optima MAX-XP, MLA-80 rotor). The supernatant was carefully collected, snap-frozen in liquid nitrogen, and stored at −80 °C for subsequent analysis.
(§2) Protein concentration was quantified using the Bradford protein assay. […] Following incubation, each aliquot was further subdivided into nine 120 µl portions in PCR tubes. […] For analysis, 75 µl of each supernatant was allocated for mass spectrometry-based thermal protein profiling (TPP), while the remaining 25 µl was used for immunoblotting to assess PDEδ levels.
(§3) For mass spectrometric analysis, sample processing was further proceeded with reduction and alkylation, followed by acetone precipitation and tryptic digestion. Each digested aliquot was then labelled with isobaric TMT reagents (Thermo Fisher Scientific, A52047) corresponding to its specific temperature condition from the thermal shift assay.
(§4) Proteins were considered as stabilised or destabilised when, in all three replicates,
(§5) tailed p-values were determined by applying paired t-test comparing AUC of melting curves
(§6) between DMSO-treated and compound-treated conditions, OR
(§7) least ± 10 % (same direction) compared to the DMSO control.

[2] = biological target: Jurkat cell lysate proteome (Homo sapiens, UniProt P56134)
Procedure: as §1, §2, §3, §4, §5, §6, §7

[3] = biological target: Jurkat cell lysate proteome (Homo sapiens, UniProt P62318)
Procedure: as §1, §2, §3, §4, §5, §6, §7

[4] = biological target: Jurkat cell lysate proteome (Homo sapiens, UniProt P05388)
Procedure: as §1, §2, §3, §4, §5, §6, §7

[5] = biological target: T2, Jurkat cell lysate proteome (Homo sapiens, UniProt O95628)
T2 sequence (O95628 1-575): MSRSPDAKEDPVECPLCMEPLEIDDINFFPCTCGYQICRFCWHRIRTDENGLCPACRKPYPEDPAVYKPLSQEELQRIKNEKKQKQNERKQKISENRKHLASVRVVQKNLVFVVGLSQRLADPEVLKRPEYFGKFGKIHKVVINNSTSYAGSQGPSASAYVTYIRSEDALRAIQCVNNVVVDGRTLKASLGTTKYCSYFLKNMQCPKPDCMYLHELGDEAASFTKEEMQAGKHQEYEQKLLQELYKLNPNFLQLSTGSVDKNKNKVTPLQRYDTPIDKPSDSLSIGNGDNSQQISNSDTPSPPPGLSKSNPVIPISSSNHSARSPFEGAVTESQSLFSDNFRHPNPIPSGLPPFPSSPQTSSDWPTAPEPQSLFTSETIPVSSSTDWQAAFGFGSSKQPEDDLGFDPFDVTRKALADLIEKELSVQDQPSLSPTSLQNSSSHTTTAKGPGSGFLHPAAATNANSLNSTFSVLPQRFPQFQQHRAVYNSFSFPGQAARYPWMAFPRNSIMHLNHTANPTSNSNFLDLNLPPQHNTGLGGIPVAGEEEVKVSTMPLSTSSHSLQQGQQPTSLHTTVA
Procedure: as §1, §2, §3, §4, §5, §6, §7

[6] = biological target: Jurkat cell lysate proteome (Homo sapiens, UniProt Q9UHA4)
Procedure: as §1, §2, §3, §4, §5, §6, §7

[7] = biological target: T3, Jurkat cell lysate proteome (Homo sapiens, UniProt P24666)
T3 sequence (P24666 1-158): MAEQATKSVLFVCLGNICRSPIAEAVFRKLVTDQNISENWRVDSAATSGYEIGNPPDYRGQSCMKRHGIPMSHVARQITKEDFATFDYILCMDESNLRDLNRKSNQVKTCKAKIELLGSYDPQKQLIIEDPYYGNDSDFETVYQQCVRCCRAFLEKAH
Procedure: as §1, §2, §3, §4, §5, §6, §7

[8] = biological target: Jurkat cell lysate proteome (Homo sapiens, UniProt O75044)
Procedure: as §1, §2, §3, §4, §5, §6, §7

[9] = biological target: T4, Jurkat cell lysate proteome (Homo sapiens, UniProt Q16854)
T4 sequence (Q16854 40-277): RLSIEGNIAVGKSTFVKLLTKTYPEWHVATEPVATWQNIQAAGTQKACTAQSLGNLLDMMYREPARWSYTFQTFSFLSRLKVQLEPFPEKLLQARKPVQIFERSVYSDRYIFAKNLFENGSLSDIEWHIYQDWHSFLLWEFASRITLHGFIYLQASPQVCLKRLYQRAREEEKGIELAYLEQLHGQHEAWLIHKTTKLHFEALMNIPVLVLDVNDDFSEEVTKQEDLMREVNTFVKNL
Procedure: as §1, §2, §3, §4, §5, §6, §7

[10] = biological target: Jurkat cell lysate proteome (Homo sapiens, UniProt P36404)
Procedure: as §1, §2, §3, §4, §5, §6, §7

[11] = biological target: Jurkat cell lysate proteome (Homo sapiens, UniProt P37802)
Procedure: as §1, §2, §3, §4, §5, §6, §7

[12] = biological target: Jurkat cell lysate proteome (Homo sapiens, UniProt P62899)
Procedure: as §1, §2, §3, §4, §5, §6, §7

[13] = biological target: Jurkat cell lysate proteome (Homo sapiens, UniProt Q15382); settings: 10 µM, 15 min
Procedure: as §1, §2, §3, §4, §5, §6, §7

[14] = biological target: Jurkat cell lysate proteome (Homo sapiens, UniProt Q14108)
Procedure: as §1, §2, §3, §4, §5, §6, §7

[15] = biological target: Jurkat cell lysate proteome (Homo sapiens, UniProt P07195)
Procedure: as §1, §2, §3, §4, §5, §6, §7

[16] = 10 µM, 15 min, listed as DeltaTag

Sequence of Jurkat cell lysate proteome (Homo sapiens, UniProt Q9UHA4) (Q9UHA4 whole entry): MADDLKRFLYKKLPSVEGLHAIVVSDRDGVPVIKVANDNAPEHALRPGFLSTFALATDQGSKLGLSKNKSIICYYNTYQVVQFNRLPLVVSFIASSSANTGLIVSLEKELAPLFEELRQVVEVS
Sequence of Jurkat cell lysate proteome (Homo sapiens, UniProt Q15382) (Q15382 whole entry): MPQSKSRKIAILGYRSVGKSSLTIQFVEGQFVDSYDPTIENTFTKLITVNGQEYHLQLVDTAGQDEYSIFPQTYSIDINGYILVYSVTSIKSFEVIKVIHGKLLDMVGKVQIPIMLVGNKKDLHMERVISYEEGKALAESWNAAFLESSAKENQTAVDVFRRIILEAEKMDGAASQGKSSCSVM
Sequence of Jurkat cell lysate proteome (Homo sapiens, UniProt P62318) (P62318 whole entry): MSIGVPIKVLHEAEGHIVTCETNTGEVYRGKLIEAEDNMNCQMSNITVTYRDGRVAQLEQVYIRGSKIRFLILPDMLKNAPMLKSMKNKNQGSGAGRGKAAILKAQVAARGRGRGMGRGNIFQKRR
Sequence of Jurkat cell lysate proteome (Homo sapiens, UniProt P37802) (P37802 whole entry): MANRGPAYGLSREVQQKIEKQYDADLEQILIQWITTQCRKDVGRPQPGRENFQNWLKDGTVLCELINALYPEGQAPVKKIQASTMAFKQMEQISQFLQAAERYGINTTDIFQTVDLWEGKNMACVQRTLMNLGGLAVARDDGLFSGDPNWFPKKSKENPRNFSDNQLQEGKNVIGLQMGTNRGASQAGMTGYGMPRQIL
Sequence of Jurkat cell lysate proteome (Homo sapiens, UniProt P07195) (P07195 whole entry): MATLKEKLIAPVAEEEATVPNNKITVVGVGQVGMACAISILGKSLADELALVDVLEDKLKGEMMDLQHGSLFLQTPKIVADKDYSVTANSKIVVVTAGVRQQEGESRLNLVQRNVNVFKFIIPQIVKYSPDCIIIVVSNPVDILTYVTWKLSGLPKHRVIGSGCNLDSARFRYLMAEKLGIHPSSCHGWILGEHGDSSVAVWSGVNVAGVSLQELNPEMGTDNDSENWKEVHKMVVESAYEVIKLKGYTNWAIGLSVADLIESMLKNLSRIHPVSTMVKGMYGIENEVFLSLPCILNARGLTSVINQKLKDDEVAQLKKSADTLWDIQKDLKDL
Sequence of Jurkat cell lysate proteome (Homo sapiens, UniProt Q14108) (Q14108 whole entry): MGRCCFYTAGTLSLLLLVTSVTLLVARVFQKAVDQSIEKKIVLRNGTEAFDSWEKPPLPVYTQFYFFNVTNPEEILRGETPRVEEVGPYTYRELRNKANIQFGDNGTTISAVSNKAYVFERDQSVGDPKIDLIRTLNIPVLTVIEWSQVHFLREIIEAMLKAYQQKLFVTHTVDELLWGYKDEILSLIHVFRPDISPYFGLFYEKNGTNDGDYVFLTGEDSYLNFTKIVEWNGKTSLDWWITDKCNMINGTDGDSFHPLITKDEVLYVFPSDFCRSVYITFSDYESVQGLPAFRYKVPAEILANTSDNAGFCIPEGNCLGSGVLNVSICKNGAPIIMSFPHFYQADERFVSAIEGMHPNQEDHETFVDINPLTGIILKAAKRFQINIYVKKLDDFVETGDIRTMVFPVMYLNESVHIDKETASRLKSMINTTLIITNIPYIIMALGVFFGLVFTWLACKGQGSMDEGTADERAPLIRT
Sequence of Jurkat cell lysate proteome (Homo sapiens, UniProt P36404) (P36404 whole entry): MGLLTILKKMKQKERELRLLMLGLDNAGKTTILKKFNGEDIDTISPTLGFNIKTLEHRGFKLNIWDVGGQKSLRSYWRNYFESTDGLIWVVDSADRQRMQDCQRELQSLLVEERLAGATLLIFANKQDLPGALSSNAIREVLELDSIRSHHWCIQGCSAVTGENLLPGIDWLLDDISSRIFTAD
Sequence of Jurkat cell lysate proteome (Homo sapiens, UniProt P56134) (P56134 whole entry): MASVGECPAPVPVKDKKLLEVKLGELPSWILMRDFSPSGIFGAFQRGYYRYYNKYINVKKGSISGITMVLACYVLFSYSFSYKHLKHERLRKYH

Cc1ccc(-n2nc3c(=O)n(CCCCS(=O)(=O)N(CCc4cccc(CCBr)c4)CC4CCNCC4)nc(C)c3c2C)cc1 [6a]
ΔAUC FBL ([1]; 10 µM, 15 min): -1.8 | ΔI67°C FBL ([1]; 10 µM, 15 min): -1 ± 2% | ΔTm at 10 µM ([1]; read-out: ΔTm FBL, 10 µM, 15 min): -1.8 ± 1.1 °C | ΔI67°C ATP5J2 ([2]; 10 µM, 15 min): 1 ± 1% | ΔTm at 10 µM ([2]; read-out: ΔTm ATP5J2, 10 µM, 15 min): -2 ± 1 °C | ΔAUC SNRPD3 ([3]; 10 µM, 15 min): -2 | ΔI67°C SNRPD3 ([3]; 10 µM, 15 min): -9 ± 11% | ΔTm at 10 µM ([3]; read-out: ΔTm SNRPD3, 10 µM, 15 min): 0.8 ± 0.7 °C | ΔAUC RPLP0 ([4]; 10 µM, 15 min): -2.9 | ΔI67°C RPLP0 ([4]; 10 µM, 15 min): -4 ± 5% | ΔTm at 10 µM ([4]; read-out: ΔTm RPLP0, 10 µM, 15 min): -5.2 ± 2.7 °C | ΔAUC CNOT4 ([5]; 10 µM, 15 min): -1.7 | ΔI67°C CNOT4 ([5]; 10 µM, 15 min): 0 ± 3% | ΔTm at 10 µM ([5]; read-out: ΔTm CNOT4, 10 µM, 15 min): -2.7 ± 1 °C | ΔAUC LAMTOR3 ([6]; 10 µM, 15 min): -2.1 | ΔI67°C LAMTOR3 ([6]; 10 µM, 15 min): -3 ± 2% | ΔAUC LAMTOR3 [6, 16]: −2.1 | ΔTm at 10 µM ([6]; read-out: ΔTm LAMTOR3, 10 µM, 15 min): -2.6 ± 1.4 °C | ΔAUC ACP1 ([7]; 10 µM, 15 min): 2.1 | ΔI67°C ACP1 ([7]; 10 µM, 15 min): 0 ± 4% | ΔTm at 10 µM ([7]; read-out: ΔTm ACP1, 10 µM, 15 min): 2.3 ± 0.3 °C | ΔAUC SRGAP2 ([8]; 10 µM, 15 min): -2.5 | ΔI67°C SRGAP2 ([8]; 10 µM, 15 min): -10 ± 7% | ΔAUC SRGAP2 [8, 16]: −2.5 | ΔTm at 10 µM ([8]; read-out: ΔTm SRGAP2, 10 µM, 15 min): -1.3 ± 1.1 °C | ΔAUC DGUOK ([9]; 10 µM, 15 min): -2.3 | ΔI67°C DGUOK ([9]; 10 µM, 15 min): 0 ± 2% | ΔTm at 10 µM ([9]; read-out: ΔTm DGUOK, 10 µM, 15 min): -2.9 ± 1.9 °C | ΔAUC Arl2 ([10]; 10 µM, 15 min): 0.97 | ΔTm at 10 µM ([10]; read-out: ΔTm Arl2, 10 µM, 15 min): -0.92 °C | ΔAUC TAGLN2 ([11]; 10 µM, 15 min): 1.4 | ΔI67°C TAGLN2 ([11]; 10 µM, 15 min): -5 ± 9% | ΔTm at 10 µM ([11]; read-out: ΔTm TAGLN2, 10 µM, 15 min): 2.8 ± 0.7 °C | ΔAUC RPL31 ([12]; 10 µM, 15 min): -2.5 | ΔI67°C RPL31 ([12]; 10 µM, 15 min): -6 ± 5% | ΔTm at 10 µM ([12]; read-out: ΔTm RPL31, 10 µM, 15 min): -2.1 ± 0.6 °C | ΔAUC RHEB [13]: -1.5 | ΔI67°C RHEB [13]: -6 ± 8% | ΔTm RHEB [13]: -0.9 ± 0.8 °C | ΔAUC RHEB ([13]; listed as DeltaTag): −1.5 | ΔTm RHEB ([13]; listed as DeltaTag): −0.89 °C | ΔI67°C SCARB2 ([14]; 10 µM, 15 min): -14 ± 4% | ΔTm at 10 µM ([14]; read-out: ΔTm SCARB2, 10 µM, 15 min): 0.7 ± 2.1 °C | ΔAUC LDHB ([15]; 10 µM, 15 min): -1.8 | ΔI67°C LDHB ([15]; 10 µM, 15 min): -1 ± 4% | ΔTm at 10 µM ([15]; read-out: ΔTm LDHB, 10 µM, 15 min): -2.9 ± 0.7 °C
